This is an account of results in ChEMBL document CHEMBL4257529, “Antifungal amphiphilic kanamycins: new life for an old drug” (Medchemcomm, 2018).

The test system of one data set is Escherichia coli. The data set is described as follows: Antibacterial activity against Escherichia coli TG1 by microbroth dilution assay. The format is functional.
The next data set deals with Staphylococcus aureus. The data set is described as follows: Antibacterial activity against Staphylococcus aureus ATCC 25923 by microbroth dilution assay. The format is functional.
In a further data set the test system is Pseudomonas aeruginosa. Description: Antibacterial activity against Pseudomonas aeruginosa ATCC 27853 by microbroth dilution assay. Format: functional.
The subject of a further data set is Enterococcus faecalis. Description: Antibacterial activity against Enterococcus faecalis ATCC 29212 by microbroth dilution assay. Format: functional.
The subject of data set [1] is Klebsiella pneumoniae. Description: Antibacterial activity against Klebsiella pneumoniae […] by microbroth dilution assay. Format: functional.
Data set [2] relates to Klebsiella pneumoniae. Description: Antibacterial activity against Klebsiella pneumoniae ATCC 700603 by microbroth dilution assay. Format: functional.
Another data set deals with Rhodotorula mucilaginosa. Description: Antifungal activity against Rhodotorula pilimanae by microbroth dilution assay. The format is functional.
A further data set has as its system Candida albicans. The data set is described as follows: Antifungal activity against Candida albicans by microbroth dilution assay. The format is functional.
Another data set deals with Saccharomyces cerevisiae. The data set is described as follows: Antifungal activity against Saccharomyces cerevisiae W303 by microbroth dilution assay. Format: functional.
The test system of data set [3] is Fusarium graminearum. The data set is described as follows: Antifungal activity against Fusarium graminearum by microbroth dilution assay. Format: functional.
The next data set deals with Fusarium oxysporum. The data set is described as follows: Antifungal activity against Fusarium oxysporum by microbroth dilution assay. The format is functional.
The next data set relates to Ulocladium. The data set is described as follows: Antifungal activity against Ulocladium spp. by microbroth dilution assay. Format: functional. The settings on record: Alternaria sect. Ulocladium.
For data set [4], the system named is Globisporangium irregulare. Description: Antifungal activity against Pythium irregulare by microbroth dilution assay. Format: functional.
In a further data set the test system is Globisporangium ultimum. The data set is described as follows: Antifungal activity against Pythium ultimum by microbroth dilution assay. The format is functional.
In the next data set the test system is Phytophthora nicotianae. The data set is described as follows: Antifungal activity against Phytophthora parasitica by microbroth dilution assay. Format: functional.
In the next data set the test system is Rhizopus stolonifer. The data set is described as follows: Antifungal activity against Rhizopus stolonifer by microbroth dilution assay. The format is functional.
Data set [5] has as its system Cladosporium cladosporioides. The data set is described as follows: Antifungal activity against Cladosporium cladosporioides by microbroth dilution assay. Format: functional.
A further data set has as its system Curvularia brachyspora. Description: Antifungal activity against Curvularia brachyspora by microbroth dilution assay. Format: functional.
The subject of the next data set is Botrytis cinerea. Description: Antifungal activity against Bortrytis cinerea by microbroth dilution assay. The format is functional.
The next data set has as its system Phoma. Description: Antifungal activity against Phoma spp. by microbroth dilution assay. The format is functional.
The nature of data set [6]: Hemolytic activity in sheep RBC relative to control. The format is ADME, cell-based, Ovis aries, Erythrocyte. The settings on record: sheep red blood cells (erythrocytes), read-out: Activity.
Data set [7] relates to Fusarium graminearum. Description: Antifungal activity against Fusarium graminearum infected in wheat plant assessed as fusarium head blight incidence at 0.512 L/ha (reference value: 70%). The format is functional.
Data set [8] concerns Fusarium graminearum. Description: Antifungal activity against Fusarium graminearum infected in wheat plant assessed as fusarium head blight incidence at 1.02 L/ha (reference value: 70%). Format: functional.
Data set [9] concerns Fusarium graminearum. The data set is described as follows: Antifungal activity against Fusarium graminearum infected in wheat plant assessed as fusarium head blight severity at 0.512 L/ha (reference value: 75%). Format: functional.
In data set [10] the test system is Fusarium graminearum. The data set is described as follows: Antifungal activity against Fusarium graminearum infected in wheat plant assessed as fusarium head blight severity at 1.02 L/ha (reference value: 75%). The format is functional.
Data set [11] concerns Fusarium graminearum. Description: Antifungal activity against Fusarium graminearum infected in wheat plant assessed as fusarium head blight index at 0.512 L/ha (reference value: 53%). The format is functional.
Data set [12] concerns Fusarium graminearum. The data set is described as follows: Antifungal activity against Fusarium graminearum infected in wheat plant assessed as fusarium head blight index at 1.02 L/ha (reference value: 53%). Format: functional.
Data set [13] concerns Fusarium graminearum. Description: Antifungal activity against Fusarium graminearum infected in wheat plant assessed as contamination of wheat heads and kernels with deoxynivalenol at 4 ml/L (reference value: 1.2 ppm). Format: functional.
Data set [14] deals with Fusarium graminearum. Description: Antifungal activity against Fusarium graminearum infected in wheat plant assessed as contamination of wheat heads and kernels with deoxynivalenol at 8 ml/L (reference value: 1.2 ppm). Format: functional.

≈ marks a conversion by molar mass, not a printed value.

Turning to `CCCCCCCCO[C@H]1[C@H](O)[C@@H](O)[C@@H](O[C@@H]2[C@@H](O)[C@H](O[C@H]3O[C@H](CN)[C@@H](O)[C@H](O)[C@H]3N)[C@@H](N)C[C@H]2N)O[C@@H]1C`, the MIC against Escherichia coli is 125 to 250 µg/mL (≈ 215 to 431 µM); with Staphylococcus aureus, 250 µg/mL (≈ 431 µM); against Pseudomonas aeruginosa it was 250 µg/mL (≈ 431 µM); against Enterococcus faecalis, 125 to 250 µg/mL (≈ 215 to 431 µM); in the data set with Klebsiella pneumoniae [1], 250 µg/mL (≈ 431 µM); against Klebsiella pneumoniae [2] it was 250 µg/mL (≈ 431 µM). The minimum inhibitory concentration (MIC) in the data set with Rhodotorula mucilaginosa was 7.8 µg/mL (≈ 13.4 µM); in the data set with Candida albicans it was 31.3 µg/mL (≈ 53.9 µM); with Saccharomyces cerevisiae, 31.3 µg/mL (≈ 53.9 µM); with Fusarium graminearum [3], 7.8 µg/mL (≈ 13.4 µM); against Fusarium oxysporum, 7.8 µg/mL (≈ 13.4 µM); with Ulocladium, 7.8 µg/mL (≈ 13.4 µM). The MIC in data set [4] was 15.6 µg/mL (≈ 26.9 µM); in the data set with Globisporangium ultimum, 15.6 µg/mL (≈ 26.9 µM); against Phytophthora nicotianae, 15.6 µg/mL (≈ 26.9 µM); against Rhizopus stolonifer, 31.3 µg/mL (≈ 53.9 µM); in data set [5] it was 31.3 µg/mL (≈ 53.9 µM); in the data set on Curvularia brachyspora, 31.3 µg/mL (≈ 53.9 µM). Further, the MIC in the data set on Botrytis cinerea and against Phoma was 31.3 µg/mL (≈ 53.9 µM) throughout. The hemolysis in data set [6] is less than 20%.

For `CC1(C)CCC(Cc2ccc(Cl)cc2)C1(O)Cn1cncn1` (centres undefined) [METCONAZOLE], the Activity with Fusarium graminearum [7] was found to be 13%; with Fusarium graminearum [8] it was 12%; in the data set with Fusarium graminearum [9], 69%; with Fusarium graminearum [10], 58%. The Activity_index in the data set with Fusarium graminearum [11] is on record as 9%; in the data set on Fusarium graminearum [12] it was 7%.

Turning to `COC(=O)N(OC)c1ccccc1COc1ccn(-c2ccc(Cl)cc2)n1` [PYRACLOSTROBIN], the figures for the Activity with Fusarium graminearum [13] and in the data set on Fusarium graminearum [14] were 1.3 ppm and 1.2 ppm, respectively.
